Earlier results as cited in patent US20170049816A1, “Methods of Benchmarking Wellness with a Stable Reactive Oxygen Species Solution” (Reoxcyn Discoveries Group, Inc., priority 2013, published 2017).

Settings: pH-neutral aqueous solution (pH around 7.0) at room temperature

For `O=[O+][O-]` [dissolved ozone (O3), ozone], the half-life is given as “about 20 min”.
